Experimental data reported in the supplement of paper PMC4862054.

Legend:
Conditions in all cases: incubation time: 72 h
[1] = tested on: BT-474; test: normalised response (% of control), CellTox Green; higher = less cell death (100 = DMSO, 0 = benzethonium chloride kill control)
Summary of the method: (§1)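 Each entry is the normalised signal at a single concentration within a series. The series comprised 5 concentrations in 10-fold steps over a compound-specific 10,000-fold range, placed in 384-well plates into which breast cancer cell lines were seeded as 20 µl suspension and incubated 72 h. CellTox Green (485/520 nm) fluorescence and then CellTiter-Glo luminescence were read, with signals normalised per plate to 0.1 % DMSO (100) and a positive kill control (0).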

[2] = tested on: BT-549; test: as above
Summary of the method: as §1

[3] = tested on: CAL-120; test: as above
Summary of the method: as §1

[4] = tested on: CAL-148; test: as above
Summary of the method: as §1

[5] = tested on: CAL-51; test: as above
Summary of the method: as §1

[6] = tested on: CAL-85-1; test: as above
Summary of the method: as §1

[7] = tested on: DU-4475; test: as above
Summary of the method: as §1

[8] = tested on: HCC1143; test: as above
Summary of the method: as §1

[9] = tested on: HCC1599; test: as above
Summary of the method: as §1

[10] = tested on: HCC1937; test: as above
Summary of the method: as §1

[11] = tested on: HDQ-P1; test: as above
Summary of the method: as §1

[12] = tested on: Hs578T; test: as above
Summary of the method: as §1

[13] = tested on: MCF-10A; test: as above
Summary of the method: as §1

[14] = tested on: MDA-MB-231; test: as above
Summary of the method: as §1

[15] = tested on: MDA-MB-436; test: as above
Summary of the method: as §1

[16] = tested on: MDA-MB-453; test: as above
Summary of the method: as §1

[17] = tested on: MDA-MB-468; test: as above
Summary of the method: as §1

[18] = tested on: MFM-223; test: as above
Summary of the method: as §1

[19] = tested on: BT-474; test: normalised response (% of control), CellTiter-Glo; higher = more viable cells (100 = DMSO, 0 = benzethonium chloride kill control)
Summary of the method: as §1

[20] = tested on: BT-549; test: as above
Summary of the method: as §1

[21] = tested on: CAL-120; test: as above
Summary of the method: as §1

[22] = tested on: CAL-148; test: as above
Summary of the method: as §1

[23] = tested on: CAL-51; test: as above
Summary of the method: as §1

[24] = tested on: CAL-85-1; test: as above
Summary of the method: as §1

[25] = tested on: DU-4475; test: as above
Summary of the method: as §1

[26] = tested on: HCC1143; test: as above
Summary of the method: as §1

[27] = tested on: HCC1599; test: as above
Summary of the method: as §1

[28] = tested on: HCC1937; test: as above
Summary of the method: as §1

[29] = tested on: HDQ-P1; test: as above
Summary of the method: as §1

[30] = tested on: Hs578T; test: as above
Summary of the method: as §1

[31] = tested on: MCF-10A; test: as above
Summary of the method: as §1

[32] = tested on: MDA-MB-231; test: as above
Summary of the method: as §1

[33] = tested on: MDA-MB-436; test: as above
Summary of the method: as §1

[34] = tested on: MDA-MB-453; test: as above
Summary of the method: as §1

[35] = tested on: MDA-MB-468; test: as above
Summary of the method: as §1

[36] = tested on: MFM-223; test: as above
Summary of the method: as §1

[37] = tested on: SK-BR-3; test: as above
Summary of the method: as §1

Compound | normalised response [1] [%] | normalised response [2] [%] | normalised response [3] [%] | normalised response [4] [%] | normalised response [5] [%] | normalised response [6] [%] | normalised response [7] [%] | normalised response [8] [%] | normalised response [9] [%] | normalised response [10] [%] | normalised response [11] [%] | normalised response [12] [%] | normalised response [13] [%] | normalised response [14] [%] | normalised response [15] [%] | normalised response [16] [%] | normalised response [17] [%] | normalised response [18] [%] | normalised response [19] [%] | normalised response [20] [%] | normalised response [21] [%] | normalised response [22] [%] | normalised response [23] [%] | normalised response [24] [%] | normalised response [25] [%] | normalised response [26] [%] | normalised response [27] [%] | normalised response [28] [%] | normalised response [29] [%] | normalised response [30] [%] | normalised response [31] [%] | normalised response [32] [%] | normalised response [33] [%] | normalised response [34] [%] | normalised response [35] [%] | normalised response [36] [%] | normalised response [37] [%]
Cn1cncc1[C@@](N)(c1ccc(Cl)cc1)c1ccc2c(c1)c(-c1cccc(Cl)c1)cc(=O)n2C [Tipifarnib] (1000 nM) | 100 | 136 | 97.4 | 96 | 57.2 | 98.8 | 95.6 | 110 | 90.8 | 45.6 | 102 | 108 | 73.9 | 103 | 94.4 | 107 | 105 | 101 | 80.5 | 75.1 | 79.4 | 66.8 | 52.2 | 110 | 66.4 | 80.5 | 111 | 74.5 | 76.4 | 80.6 | 86.9 | 90.6 | 65.1 | 73.8 | 74.9 | 73.8 | 59.4
Cn1c(=O)n(-c2ccc(C(C)(C)C#N)cc2)c2c3cc(-c4cnc5ccccc5c4)ccc3ncc21 [Dactolisib] (100 nM) | 104 | 134 | 89.3 | 72.8 | 104 | 94.4 | 94.5 | 109 | 103 | 65 | 109 | 108 | 108 | 108 | 110 | 98 | 134 | 99.3 | 62.1 | 23.8 | 29.1 | 30.4 | 31.7 | 39.9 | 41 | 45.5 | 80.4 | 57.3 | 52.7 | 35.2 | 45.2 | 50.4 | 62 | 38.8 | 39 | 39.1 | 30
C/C(=C\c1csc(C)n1)[C@@H]1C[C@@H]2O[C@]2(C)CCC[C@H](C)[C@H](O)[C@@H](C)C(=O)C(C)(C)[C@@H](O)CC(=O)O1 [Patupilone] (100 nM) | 58.5 | 90.3 | 77.9 | 50.5 | 36.3 | 38.6 | 94.5 | 103 | 95.6 | 81.2 | 71.9 | 96.1 | 77.1 | 65.7 | 40.1 | 93.6 | -2.53 | 84.1 | 75.1 | 16.3 | 71.4 | 37.4 | 24.4 | 25.8 | 72.4 | 42.8 | 102 | 75.9 | 74.6 | 39.6 | 61.4 | 73 | 35.4 | 71.8 | 26.2 | 86.8 | 17.4
C[C@]12CC[C@H](O)CC1=CC[C@@H]1[C@@H]2CC[C@]2(C)C(c3cccnc3)=CC[C@@H]12 [Abiraterone] (500 nM) | 103 | 135 | 99.1 | 94.8 | 101 | 96 | 101 | 104 | 110 | 123 | 108 | 114 | 102 | 127 | 88.8 | 104 | 92 | 104 | 90.7 | 99.1 | 97.1 | 105 | 65.6 | 104 | 105 | 98.8 | 107 | 98.7 | 99.2 | 106 | 112 | 105 | 96 | 99.3 | 98 | 101 | 103
CC[C@]1(O)C[C@H]2CN(CCc3c([nH]c4ccccc34)[C@@](C(=O)OC)(c3cc4c(cc3OC)N(C=O)[C@H]3[C@@](O)(C(=O)OC)[C@H](OC(C)=O)[C@]5(CC)C=CCN6CC[C@]43[C@@H]65)C2)C1 [Vincristine] (100 nM) | 75.3 | 44.2 | 86.3 | 82.8 | 40.1 | 69.3 | 100 | 94.3 | 82.2 | 62.1 | 93 | 62.5 | -44.4 | 3.37 | 73.6 | 97.3 | 38.5 | 15.3 | 58.5 | 42.1 | 63.2 | 47.8 | 46.3 | 40.8 | 71.1 | 60.9 | 21.6 | 72.8 | 79.3 | 24.1 | 72.7 | 53.2 | 28.6 | 57.9 | 32.9 | 45.8 | 13.6
CN1CCN(CCOc2cc(OC3CCOCC3)c3c(Nc4c(Cl)ccc5c4OCO5)ncnc3c2)CC1 [Saracatinib] (1000 nM) | 96.4 | 93 | 96.6 | 99.3 | 68.5 | 68.5 | 98.9 | 76.8 | 96 | 86.5 | 86.8 | 83.4 | 106 | 77.6 | 77.6 | 101 | 181 | 93.9 | 71.1 | 89.9 | 81.9 | 84.1 | 74.3 | 61.7 | 94 | 74.6 | 119 | 83.3 | 53.2 | 96.1 | 41.5 | 64.6 | 93.9 | 88.2 | 79.2 | 89.7 | 92.7
